Results: US4260630A, “Skin diseases” (priority 1977, dated 1981)
Entries after “also recorded” stand apart in the source; their conditions may differ.

How the values were obtained:
yeast RNA = assay: Photobinding to yeast RNA in vivo (radiolabelled drug plus 365 nm light); assay type: binding, Saccharomyces cerevisiae; settings: for Molecules 3-CPs/μg DNA / μg 3-CPs/μg DNA: binding to RNA
Method: The radioactivity of an aliquot (0.1 ml) of this solution was measured in 5 ml of scintillation mixture (Nuclear Entreprise, Ltd., Edinburgh, Scotland, NE 250).
For the in vivo determinations stationary phase cells of the haploid wild type strain N 123 were prepared as previously described.
2 ml cell suspensions were exposed to several doses of 365 nm light. In parallel, non irradiated samples were incubated for the same periods. Immediately after incubation and/or irradiation, the samples were centrifuged and the pellet was washed 3 times with 5 ml of saline (0.9% NaCl). The washed cell pellet was resuspended in 1 ml of saline and 1 ml of 2 N NaOH was added in order to hydrolyze the RNA. The suspension was incubated overnight in the dark at room temperature, then cooled down on ice, and 2 ml of 50% TCA were added slowly. The samples were left 20 minutes on ice and the precipitated DNA was filtered on a glass fiber filter disc (Whatman GF/A, 2.1 cm diameter). In some cases the filtrate containing the acid-soluble material was kept aside, and the radioactivity of an aliquot added to 5 ml of NE250 scintillation mixture measured. The precipitate was washed 3 times with 5 ml of 5% cold TCA and 5 ml of 70% ethanol. The filters were then dried and the radioactivity measured in plastic counting vials containing 5 ml of scintillation mixture (NE 250) in a Tricarb Packard scintillation spectrophotometer.

calf thymus DNA = assay: Photobinding to native calf thymus DNA in vitro; assay type: binding; settings: for cpm/μg DNA / μg 3-CPs/μg DNA: 6 × 10^-5 M
Method: These determinations were done in vitro and in vivo. […] The thickness of the irradiated sample was 1 mm. After irradiation, the solution was diluted by a factor of 2, and NaCl was added to a final concentration of 1 M. The DNA was precipitated with 2 volumes of cold pure ethanol. The samples were left overnight in the cold at -20° C. The precipitate was then washed by centrifugation three times with 3 ml of 70% ethanol and redissolved in 3 ml of water. The DNA recovery was checked by determination of the optical density of the solution at 260 nm.

yeast DNA = assay: Melting and reassociation (cross-link formation) of yeast DNA treated in vitro plus 365 nm light; assay type: biochemical
Method: Measurement of the melting and reassociation characteristics of yeast DNA:
Biophys. […] The fractions containing the nuclear DNA were pooled and dialysed against a 0.1 M, pH 7 phosphate buffer. […] Unirradiated samples of DNA with or without the drugs were taken as references.
The cross-links formation of the two furocoumarins with native yeast DNA was tested by measuring the denaturation and renaturation pattern.

Saccharomyces cerevisiae [1] = test system: Saccharomyces cerevisiae
Method: (§1) A wild-type strain 211-1aM (29) of Saccharomyces cerivisiae was used, and the following mutants derived from it: S24-12c rad2-20 deficient in excision repair and S25-13b rad9-4 likely to be blocked in a recombinational repair pathway; a double mutant S 2057NL-24 rad2-20 -rad9-4 clone B was obtained by tetrad analysis of a heterozygote [formula]
(§2) The media and culture conditions used were as described in D. Averbeck, E. Moustacchi, (1975) Biochim. Biophys. Acta, 395, 393-404.
(§3) 10^6 cells/ml in saline (0.9% NaCl) were treated for 30 minutes with the drugs at a final concentration of 10 μg/ml and 1.2% ethanol present.
(§4) A Philips HPW 125 culot Edison high pressure mercury lamp was used with maximal output at the wavelength 365 nm. The irradiation dose measured by actinometry was 10 J/m^2 per sec., using the following set up: 10 ml of actinometer solution (or the cell suspension, usually 1×10^6 cells/ml), stirred continuously by a magnetic stirrer, were irradiated at room temperature in an open Petri dish of 10 cm diameter at a distance of 10 cm from the center of the light bulb which was mounted horizontally. A 2 mm thick pyrex glass sheet (20×25 cm) was placed in the center of the light beam to cut out UV light of wavelength below 340 nm. Overheating was prevented either by a continuous flow of compressed air between the light bulb and the glass or by a pyrex glass water filter of 3 cm total thickness. An accumulative irradiation dose was given to the same sample. After each dose 0.1 ml of irradiated cell suspension was taken, diluted and aliquots plated.

Saccharomyces cerevisiae [2] = assay: Induction of cytoplasmic "petite" mutations in yeast; settings: compared at the same survival level (10%)
Method: as §1, §2, §3
as §4, with “Overheating was prevented either by a continuous flow of compressed air between the light bulb and the glass or by a pyrex glass water filter of 3 cm total thickness. An accumulative irradiation dose was given to the same sample. After each dose 0.1 ml of irradiated cell suspension was taken, diluted and aliquots plated.” left out

Saccharomyces cerevisiae [3] = assay: Repair of photoinduced lesions in yeast (repair mutants, agar holding); assay type: cell-based
From the text: Biophys. Acta, 395, 393-404.
Consequently, it appears that the excision repair pathway in wild type and rad9-4 cells is essential in AHR for both compounds.

[4] = 5 min, 6.3 × 10^4 ergs.mm^-2 365 nm
[5] = 10 min, 12.6 × 10^4 ergs.mm^-2 365 nm
[6] = 15 min, 18.9 × 10^4 ergs.mm^-2 365 nm
[7] = 20 min, 25.2 × 10^4 ergs.mm^-2 365 nm
[8] = 30 min, 37.8 × 10^4 ergs.mm^-2 365 nm
[9] = 40 min, 50.4 × 10^4 ergs.mm^-2 365 nm
[10] = 60 min, 75.6 × 10^4 ergs.mm^-2 365 nm
[11] = 15 min, 18.9 × 10^4 ergs. mm^-2 365 nm
[12] = 30 min, 37.8 × 10^4 ergs. mm^-2 365 nm
[13] = 45 min, 56.7 × 10^4 ergs. mm^-2 365 nm
[14] = 60 min, 75.6 × 10^4 ergs. mm^-2 365 nm

## CCOC(=O)c1cc2cc3ccoc3cc2oc1=O [Example 3-CPs, 3-carboethoxypsoralen]
Yeast RNA; [4]
  Molecules 3-CPs/μg DNA: 0.0130 Molecules 3-CPs/μg DNA × 10^14
  μg 3-CPs/μg DNA: 0.056 μg 3-CPs/μg DNA × 10^-2
Yeast RNA; [5]
  Molecules 3-CPs/μg DNA: 0.020 Molecules 3-CPs/μg DNA × 10^14
  μg 3-CPs/μg DNA: 0.086 μg 3-CPs/μg DNA × 10^-2
Yeast RNA; [6]
  Molecules 3-CPs/μg DNA: 0.026 Molecules 3-CPs/μg DNA × 10^14
  μg 3-CPs/μg DNA: 0.11 μg 3-CPs/μg DNA × 10^-2
Yeast RNA; [7]
  Molecules 3-CPs/μg DNA: 0.034 Molecules 3-CPs/μg DNA × 10^14
  μg 3-CPs/μg DNA: 0.15 μg 3-CPs/μg DNA × 10^-2
Yeast RNA; [8]
  Molecules 3-CPs/μg DNA: 0.046 Molecules 3-CPs/μg DNA × 10^14
  μg 3-CPs/μg DNA: 0.20 μg 3-CPs/μg DNA × 10^-2
Yeast RNA; [9]
  Molecules 3-CPs/μg DNA: 0.053 Molecules 3-CPs/μg DNA × 10^14
  μg 3-CPs/μg DNA: 0.23 μg 3-CPs/μg DNA × 10^-2
Yeast RNA; [10]
  Molecules 3-CPs/μg DNA: 0.058 Molecules 3-CPs/μg DNA × 10^14
  μg 3-CPs/μg DNA: 0.25 μg 3-CPs/μg DNA × 10^-2
Yeast RNA; dark, 50 minutes
  dark binding with RNA relative to that at lowest dose of irradiation: 20%
Yeast RNA; in vivo
  365 nm light dose up to which binding with RNA increases linearly, then levels off: up to 25.2×10^3 J/m^2
  difference in photoreactivity with RNA, 3-CPs vs 8-MOP: 3.4 factor
Calf thymus DNA; 0-60 min incubation (dark)
  cpm/μg DNA: 0.21 cpm/μg DNA
  μg 3-CPs/μg DNA: 0.009×10^-3 μg 3-CPs/μg DNA
Calf thymus DNA; [11]
  cpm/μg DNA: 3.29 cpm/μg DNA
  μg 3-CPs/μg DNA: 0.14×10^-3 μg 3-CPs/μg DNA
Calf thymus DNA; [12]
  cpm/μg DNA: 4.25 cpm/μg DNA
  μg 3-CPs/μg DNA: 0.18×10^-3 μg 3-CPs/μg DNA
Calf thymus DNA; [13]
  cpm/μg DNA: 4.30 cpm/μg DNA
  μg 3-CPs/μg DNA: 0.18×10^-3 μg 3-CPs/μg DNA
Calf thymus DNA; [14]
  cpm/μg DNA: 3.10 cpm/μg DNA
  μg 3-CPs/μg DNA: 0.13×10^-3 μg 3-CPs/μg DNA
Calf thymus DNA; in vitro
  dose of 365 nm light up to which binding increases rapidly: up to 3780 J/m^2
Calf thymus DNA; in vitro (table 3)
  difference in photoreactivity with DNA in vitro, 3-CPs vs 8-MOP: 4.8 factor
Calf thymus DNA; initial part of the photoreaction
  photoreactivity with native DNA, times lower than 8-MOP: about 5 times
Yeast DNA
  reassociation of DNA after heat denaturation: such a reassociation was not found
Yeast DNA; dose range used
  cross-links in DNA: does not induce cross-links in DNA; also recorded: absence of cross-link formation
Saccharomyces cerevisiae [1]
  difference in survival response, 3-CPs vs 8-MOP: 6 factor
  dose-modifying factor for rad9-4 compared to wild type: constant
  photobiological activity after previous exposure to light: decline in the photobiological activity
  resistance to the killing effect compared with 8-MOP: much higher than that expected from the photoreactivity
  shape of survival curve: exponential survival curve
  survival level compared with 8-MOP: still relatively high as compared to that for 8-MOP
Saccharomyces cerevisiae [1]; saline, 5 min
  survivors: 10^-1
Saccharomyces cerevisiae [1]; wild type and rad9-4
  concentration versus 365 nm light dose, log-log plot at given survival: follows a linear function
  reciprocity between light dose and drug concentration for cell killing: no reciprocity between the light dose and the drug concentration
Saccharomyces cerevisiae [2]
  induction of cytoplasmic "petite" mutations: the most reactive compound
Saccharomyces cerevisiae [3]; agar holding
  dark repair by strain defective in excision: unable to perform a dark repair
  repair by strain defective in recombination: reduced capacity to repair
Saccharomyces cerevisiae [3]; plus 365 nm light
  interaction between rad2 and rad9 repair pathways: synergistic interaction
Saccharomyces cerevisiae [3]; wild-type cells
  kinetics of agar holding recovery (AHR): same kinetics of AHR
